The values below come from BindingDB's records for doi:10.3109/14756366.2012.727812 (Shiraz University, 2013).

One may read the IC50 as the concentration at which inhibition is half-maximal. A high value points to weaker potency. Broadly, the Ki is the equilibrium dissociation constant of an inhibitor or competing ligand from its target. A high value points to weaker binding.

Where “and” joins values, the source holds several entries; their conditions need not be identical. Equal entries are not always repeated.

Chain of Alpha-glucosidase MAL12 (P53341 whole entry): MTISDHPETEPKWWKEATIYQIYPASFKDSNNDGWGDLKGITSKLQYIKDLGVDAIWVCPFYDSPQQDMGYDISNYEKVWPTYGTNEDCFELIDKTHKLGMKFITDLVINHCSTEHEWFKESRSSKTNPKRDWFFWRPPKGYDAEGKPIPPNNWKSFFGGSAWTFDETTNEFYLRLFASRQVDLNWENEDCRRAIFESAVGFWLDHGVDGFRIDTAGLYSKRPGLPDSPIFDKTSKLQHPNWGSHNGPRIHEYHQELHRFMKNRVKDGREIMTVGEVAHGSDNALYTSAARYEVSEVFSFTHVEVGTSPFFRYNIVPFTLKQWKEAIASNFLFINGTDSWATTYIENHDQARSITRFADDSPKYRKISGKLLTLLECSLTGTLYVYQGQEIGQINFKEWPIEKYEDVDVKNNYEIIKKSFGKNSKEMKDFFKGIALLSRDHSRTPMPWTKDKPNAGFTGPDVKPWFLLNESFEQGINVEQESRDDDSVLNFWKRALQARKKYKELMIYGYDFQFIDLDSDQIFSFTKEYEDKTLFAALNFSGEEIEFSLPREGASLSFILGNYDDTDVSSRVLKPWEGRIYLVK

The assay addresses Alpha-glucosidase MAL12 (Saccharomyces cerevisiae (strain ATCC 204508 / S288c), UniProt P53341). The assay can be described thus: Inhibition Assay. Particulars: pH 7. As to the method: In this study, the inhibition assay of yeast enzyme was performed in 100 mM phosphate buffer pH 7.0 at 25°C with minor changes, according to the methods reported previously. [Saijyo et al., J. Oleo. […] After centrifugation, the supernatant was dialyzed against 10 mM potassium phosphate buffer (pH 7.0) containing 0.
Take `O=c1[nH]c2c(c(=O)[nH]1)C(C(O)C(O)C(O)C(O)CO)c1c([nH]c(=O)[nH]c1=O)N2c1ccc(Br)cc1` (stereo not drawn) [α-Gl inhibitor, C2]: the IC50 was determined as 25.1 µM; the Ki is 30 µM and 130 µM.

`Nc1ccc(S(=O)(=O)c2ccc(N3c4[nH]c(=O)[nH]c(=O)c4C(C(O)C(O)C(O)C(O)CO)c4c3[nH]c(=O)[nH]c4=O)cc2)cc1` (stereo not drawn) [α-Gl inhibitor, C3] registered an IC50 of 9.6 µM and a Ki of 14 µM.

Regarding `O=c1[nH]c2c(c(=O)[nH]1)C(C(O)C(O)C(O)C(O)CO)c1c([nH]c(=O)[nH]c1=O)N2c1ccc(O)cc1` (stereo not drawn) [α-Gl inhibitor, C1], the IC50 was 74.9 µM; the Ki was 70 µM and 170 µM.
